Test results reported in the Deep4Chem optical property database.
Where “and” joins values, the source holds several entries; their conditions need not be identical. Equal entries are not always repeated. Blank lines part the entries; values can stand above or below the compound they belong to.

Assay: solvent given as SMILES

SMILES: COc1ccc(-c2cc(C)nc(-c3ccc(-n4c5ccccc5c5ccccc54)cc3)n2)cc1
absorption maximum (in C1CCOC1): 339 nm
absorption maximum (in CN(C)C=O): 340 nm
absorption maximum (in Cc1ccccc1): 341 nm
absorption maximum (in ClC(Cl)Cl): 342 nm

SMILES: c1ccc(-c2cc3c(-c4ccccc4)c4cccc5c(-c6ccccc6)cc6c(-c7ccccc7)c7cccc2c7c3c6c54)cc1
absorption maximum (in ClCCl): 454 nm

SMILES: COc1ccccc1-c1nc(-c2ccc(C(F)(F)F)cc2)n(-c2ccc(C)cc2)c1-c1ccccc1OC
absorption maximum (in CC(C)O): 285 nm
absorption maximum (in CCCCCC): 285 nm
absorption maximum (in CO): 284 nm
absorption maximum (in CS(C)=O): 286 nm
absorption maximum (in ClCCl): 286 nm

SMILES: CCCCn1c2ccc(C#Cc3cccs3)cc2c2c1c1c3ccc(C#Cc4cccs4)cc3n(CCCC)c1c1c3ccc(C#Cc4cccs4)cc3n(CCCC)c21
absorption maximum (in C1CCOC1): 348 nm

SMILES: Cc1ccc(Nc2ccc(Nc3ccc(C)cc3)c3c2C(=O)c2ccccc2C3=O)cc1
absorption maximum (in C1CCCCC1): 639 nm
absorption maximum (in C1COCCO1): 638 nm
absorption maximum (in CC(C)=O): 638 nm
absorption maximum (in CCCCCCCCCCO): 644 nm
absorption maximum (in CCCCCCCO): 641 nm
absorption maximum (in CCCCCCO): 642 nm
absorption maximum (in CCCCO): 639 nm
absorption maximum (in CCO): 637 nm
absorption maximum (in CN(C)C=O): 643 nm
absorption maximum (in CO): 636 nm
absorption maximum (in CS(C)=O): 644 nm
absorption maximum (in ClC(Cl)(Cl)Cl): 642 nm
absorption maximum (in c1ccccc1): 642 nm

SMILES: c1ccc2c(c1)Sc1ccccc1N2c1ccc2c(c1)C1(c3ccccc3-c3ccccc31)c1cc(N3c4ccccc4Sc4ccccc43)ccc1-2
absorption maximum (in Cc1ccccc1): 309 nm

SMILES: CCCCCCCCCCCCn1cccc1/C=C/c1ccc(OCCCC)c2c(/C=C/c3cccn3CCCCCCCCCCCC)ccc(OCCCC)c12
absorption maximum (in Cc1ccccc1): 375 nm

SMILES: COc1ccc(-c2nc(-c3ccc(-c4nc(-c5ccc(OC)cc5)c(-c5ccc(OC)cc5)[nH]4)cc3)[nH]c2-c2ccc(OC)cc2)cc1
absorption maximum (in CC#N): 330 nm and 365 nm

SMILES: c1ccc(N(c2ccccc2)c2ccc3c(ccc4nc5ccc6cc(N(c7ccccc7)c7ccccc7)ccc6c5nc43)c2)cc1
absorption maximum (in C1CCCCC1): 471 nm
absorption maximum (in C1CCOC1): 474 nm
absorption maximum (in CN(C)C=O): 477 nm
absorption maximum (in Cc1ccccc1): 473 nm
absorption maximum (in ClCCl): 476 nm

SMILES: Fc1ccc(N(c2ccccc2)c2ccc3ccc4c(N(c5ccccc5)c5ccc(F)cc5)ccc5ccc2c3c54)cc1
absorption maximum (in ClCCl): 423 nm

SMILES: COc1ccc2c(c1)[nH]c1c3[nH]c4cc(OC)ccc4c3c3nsnc3c21
absorption maximum (in CN(C)C=O): 436 nm
absorption maximum (in Cc1ccccc1): 425 nm
absorption maximum (in ClCCl): 430 nm

SMILES: F[B-]1(F)n2c(cc3c4ccccc4c4ccccc4c32)-c2ccc3ccccc3[n+]21
absorption maximum (in ClCCl): 476 nm

SMILES: CN(C)c1ccc2c(c1)C(=O)NC2=O
absorption maximum (in C1CCOC1): 377 nm
absorption maximum (in C1COCCO1): 378 nm
absorption maximum (in CC#N): 388 nm
absorption maximum (in CC(C)(C)O): 387 nm
absorption maximum (in CC(C)=O): 382 nm
absorption maximum (in CC(C)O): 389 nm
absorption maximum (in CCOCC): 371 nm
absorption maximum (in CO): 396 nm
absorption maximum (in O): 408 nm

SMILES: COc1cc2c3c4c(c5ccc(C(C)(C)C)cc5c5cc(C(C)(C)C)cc(c2c(OC)c1OC)c45)=[N+]1C3=Nc2c3c4cc(OC)c(OC)c(OC)c4c4cc(C(C)(C)C)cc5c6cc(C(C)(C)C)ccc6c(c3c54)n2[B-]1(F)F
absorption maximum (in Cc1ccccc1): 826 nm

SMILES: COCCOCCOCCOCC(COCCOCCOCCOC)Oc1cc(/C=C/c2ccc(/C=C(\C#N)c3ccccn3)cc2)c(OC(COCCOCCOCCOC)COCCOCCOCCOC)cc1/C=C/c1ccc(/C=C(\C#N)c2ccccn2)cc1
absorption maximum (in ClCCl): 443 nm

SMILES: O=C(c1ccc(-n2c3ccccc3c3cc(-n4c5ccccc5c5ccccc54)ccc32)cc1)c1ccc(-n2c3ccccc3c3cc(-n4c5ccccc5c5ccccc54)ccc32)cn1
absorption maximum (in Cc1ccccc1): 345 nm

SMILES: CCCCn1/c(=C/C=C/C2=[N+](C)c3ccccc3C2(C)C)c2cccc3cccc1c32
absorption maximum (in CS(C)=O): 672 nm

SMILES: CC1(C)c2ccccc2N(c2ccc(-c3nc4cc(C#N)c(C#N)cc4nc3-c3ccc(N4c5ccccc5C(C)(C)c5ccccc54)cc3)cc2)c2ccccc21
absorption maximum (in Cc1ccccc1): 454 nm

SMILES: c1ccc2c(c1)-c1cc(-n3c4ccccc4c4ccccc43)ccc1C21c2ccccc2-n2c3ccccc3c3cccc1c32 (stereo unspecified)
absorption maximum (in ClCCl): 339 nm

SMILES: CN(C)c1cc2c(cc1F)c(=O)c1cc(F)c(N3CCCCC3)cc1n2C
absorption maximum (in CCO): 364 nm

SMILES: c1ccc2c(c1)c1ccccc1n2-c1ccc(-c2ccc3nc(-c4ccc(-n5c6ccccc6c6ccccc65)cc4)nn3c2)cc1
absorption maximum (in C1CCOC1): 341 nm

SMILES: O=C(N/N=C/c1ccccc1O)c1ccc([N+](=O)[O-])cc1
absorption maximum (in C1CCOC1): 338 nm
absorption maximum (in CC#N): 339 nm
absorption maximum (in CC(C)=O): 350 nm
absorption maximum (in CCO): 345 nm
absorption maximum (in CN(C)C=O): 380 nm
absorption maximum (in CS(C)=O): 342 nm
absorption maximum (in ClCCl): 340 nm

SMILES: CC1(C)c2ccccc2N(c2ccc3c(c2)C(c2ccccc2)(c2ccccc2)c2cc(N4c5ccccc5C(C)(C)c5ccccc54)ccc2S3(=O)=O)c2ccccc21
absorption maximum (in Cc1ccccc1): 364 nm

SMILES: F[B-]1(F)OC(c2ccc3ccccc3c2)=CC(c2ccc3ccccc3c2)=[O+]1
absorption maximum (in CC#N): 419 nm
absorption maximum (in ClC(Cl)(Cl)Cl): 412 nm

SMILES: Cc1ccc(C2=C3C=c4c(oc5ccccc45)=[N+]3[B-](F)(F)n3c2cc2c4ccccc4oc23)cc1
absorption maximum (in C1CCCCC1): 584.5 nm
absorption maximum (in C1CCOC1): 581.5 nm
absorption maximum (in CC#N): 578 nm
absorption maximum (in CCOC(C)=O): 579.5 nm
absorption maximum (in CN(C)C=O): 581.5 nm
absorption maximum (in CO): 578 nm
absorption maximum (in Cc1ccccc1): 588 nm
absorption maximum (in ClCCl): 584 nm and 583 nm

SMILES: CCC1=C(C)C2=C(C)c3c(C)c(CC)c(C)n3[B-](F)(F)[N+]2=C1C
absorption maximum (in C1CCCCC1): 522.5 nm
absorption maximum (in C1CCOC1): 518.4 nm
absorption maximum (in C1COCCO1): 518.6 nm
absorption maximum (in CC#N): 514.8 nm
absorption maximum (in CC(C)=O): 516 nm
absorption maximum (in CC(C)O): 518.8 nm
absorption maximum (in CCC(C)C): 520.4 nm
absorption maximum (in CCCCCC): 521.1 nm
absorption maximum (in CCCCCCCC): 521.2 nm
absorption maximum (in CCCCCCCCCCO): 521.8 nm
absorption maximum (in CCCCCCCCO): 521 nm
absorption maximum (in CCCCCCO): 520.4 nm
absorption maximum (in CCCCO): 519.4 nm
absorption maximum (in CCCO): 518.9 nm
absorption maximum (in CCO): 517.7 nm
absorption maximum (in CCOC(C)=O): 516.4 nm
absorption maximum (in CCOCC): 518.8 nm
absorption maximum (in CN1CCCC1=O): 518.2 nm
absorption maximum (in CN(C)C=O): 517.1 nm
absorption maximum (in CO): 516.2 nm
absorption maximum (in Cc1ccccc1): 522.5 nm
absorption maximum (in ClCCl): 520 nm
absorption maximum (in OCC(F)(F)F): 515.7 nm
absorption maximum (in OCCO): 518 nm
absorption maximum (in OCCOc1ccccc1): 522.3 nm
absorption maximum (in c1ccccc1): 522.7 nm

SMILES: C(=C\c1ncc2ccccc2n1)/c1ccc(N(c2ccccc2)c2ccccc2)cc1
absorption maximum (in ClCCl): 400 nm

Now from value to compound:

absorption maximum (in CC#N): 336 nm
SMILES: CCOC(=O)c1nn(-c2ccc(OC)cc2)nc1N1CCCC1

absorption maximum (in ClC(Cl)Cl): 480 nm
SMILES: N#CC1=CC(c2ccccc2)=CC(C#N)=P1(c1ccccc1)c1ccccc1

absorption maximum (in ClCCl): 329 nm
SMILES: COc1ccc(-c2cccc3ncc(-c4ccc(C#N)cc4)n23)cc1

absorption maximum (in O): 416 nm
SMILES: O=C(O)CCCCCn1c2ccc(Br)cc2c(=O)c2cc(S(=O)(=O)O)ccc21

absorption maximum (in CO): 448 nm
SMILES: CC(C)CCC[C@@H](C)[C@H]1CC[C@H]2[C@@H]3CC=C4C[C@@H](OC(=O)Oc5cc(/C=C/C=C/c6ccc(N(C)C)cc6)ccc5[N+](=O)[O-])CC[C@]4(C)[C@H]3CC[C@]12C

absorption maximum (in ClC(Cl)Cl): 411 nm
SMILES: Cc1ccc2nc3c4c(c5ccccc5c3nc2c1)OC(=O)CC4c1ccc(C(F)(F)F)cc1 (stereo unspecified)

absorption maximum (in O): 413 nm
SMILES: O=C(O)c1cccc2c(=O)c3ccccc3[nH]c12

absorption maximum (in C1COCCO1): 384 nm
SMILES: O=C1NC(c2ccccc2)=N/C1=C\c1ccccc1

absorption maximum (in O): 285 nm
SMILES: N[C@@H](Cc1ccc(O)cc1)C(=O)O

absorption maximum (in CC#N): 370 nm
absorption maximum (in ClCCCl): 368 nm
SMILES: Cc1ccc2nc3c(=O)[nH]c(=O)[nH]c3nc2c1

absorption maximum (in CCO): 604 nm
absorption maximum (in ClC(Cl)Cl): 616 nm
absorption maximum (in ClCCl): 615 nm
SMILES: CCC(CC)c1ccc2cc3c([o+]c2c1)/C(=C/Cc1ccccc1)CCC3

absorption maximum (in C1CCCCC1): 340 nm
absorption maximum (in CO): 340 nm
SMILES: Clc1ccc(/C=C/c2nc3ccccc3s2)cc1

absorption maximum (in C1CCOC1): 362 nm
SMILES: N#Cc1c(N2CCCCC2)cc(-c2ccc3ccccc3c2)c2c1Cc1ccccc1-2

absorption maximum (in ClCCl): 350 nm
SMILES: C(S/C=C/c1ccc(/C=C/SC=C2CCCC2)cc1)=C1CCCC1

absorption maximum (in CO): 800 nm
SMILES: O=C(O)c1ccc(C2=C(/C=C/c3[se]c4ccccc4[n+]3CCCCS(=O)(=O)[O-])CCC/C2=C\C=C2/[Se]c3ccccc3N2CCCCS(=O)(=O)[O-])cc1

absorption maximum (in CO): 436 nm
SMILES: O=c1cccc2n1CN1C=C(Br)C=CC1=N2

absorption maximum (in ClCCl): 355 nm
SMILES: COc1cc(OC)cc(C2=CC(c3ccccc3)=C(c3ccccc3)C2)c1

absorption maximum (in ClCCl): 364 nm
SMILES: CC(C)c1cccc(C(C)C)c1N1C(=O)c2cccc3c(Oc4ccccc4)ccc(c23)C1=O

absorption maximum (in CCO): 422 nm
absorption maximum (in ClCCl): 428 nm
SMILES: CCN(CC)c1ccc2cc(C#N)/c(=N\C(=O)C(C)C)oc2c1

absorption maximum (in C1CCOC1): 236.81 nm
absorption maximum (in CCO): 233.58 nm
absorption maximum (in O): 233.33 nm
SMILES: N#Cc1ccc(C[C@H](N)C(=O)O)cc1

absorption maximum (in CO): 569 nm
SMILES: C#CCOc1ccc(/C=C/C2=[N+]3C(=C(c4ccc(N(C)CC)cc4)c4c(C)cc(C)n4[B-]3(F)F)C(C)=C2)cc1

absorption maximum (in CC#N): 343 nm
absorption maximum (in CCO): 357 nm
SMILES: Cc1cc(=O)oc2cc3cc(O)ccc3cc12

absorption maximum (in O): 350 nm
SMILES: NC(=O)C1=CN([C@H]2C[C@H](O)[C@@H](COP(=O)([O-])OP(=O)([O-])OC[C@H]3O[C@@H](n4cnc5c(N)ncnc54)C[C@@H]3O)O2)C=CC1

absorption maximum (in ClCCl): 303 nm
SMILES: Cc1cc2ccccc2c2c1c1ccccc1n2-c1ccc(C#N)cc1
